Reference: the NIST ThermoML archive (doi:10.1021/acs.jced.8b00554)

Experiment: xn = mol fraction of the nth substance listed
Conditions: Liquid, Vibrating tube method

CCCCCCCCCC [decane] + CCCO
mass density [kg/m3]
Conditions	313.15 K	323.15 K
100 kPa, x2 = 0.1391	716.51	707.51
100 kPa, x2 = 0.1907	717.9	709.03
100 kPa, x2 = 0.3001	721.57	712.69
100 kPa, x2 = 0.4326	726.91	717.73
100 kPa, x2 = 0.6863	743.48	734.39
100 kPa, x2 = 0.8711	764.1	755.13
1000 kPa, x2 = 0.1907	–	709.9
1000 kPa, x2 = 0.3001	723.23	–
1000 kPa, x2 = 0.4326	728.22	–
1000 kPa, x2 = 0.6863	–	735.11
1010 kPa, x2 = 0.1391	–	708.44
1010 kPa, x2 = 0.1907	718.96	–
1010 kPa, x2 = 0.3001	–	713.84
1010 kPa, x2 = 0.4326	–	718.54
1010 kPa, x2 = 0.6863	744.97	–
1010 kPa, x2 = 0.8711	765.33	–
1020 kPa, x2 = 0.1391	717.29	–
1020 kPa, x2 = 0.8711	–	755.79
2000 kPa, x2 = 0.1391	718.2	–
2000 kPa, x2 = 0.1907	719.85	–
2000 kPa, x2 = 0.4326	–	719.49
2000 kPa, x2 = 0.8711	766.21	–
2010 kPa, x2 = 0.1391	–	709.4
2010 kPa, x2 = 0.1907	–	710.86
2010 kPa, x2 = 0.3001	724.13	714.8
2010 kPa, x2 = 0.4326	729.1	–
2010 kPa, x2 = 0.6863	745.85	–
2020 kPa, x2 = 0.6863	–	736.08
2020 kPa, x2 = 0.8711	–	756.71
3000 kPa, x2 = 0.1391	719.08	–
3000 kPa, x2 = 0.4326	730	–
3000 kPa, x2 = 0.8711	–	757.64
3010 kPa, x2 = 0.1391	–	710.34
3010 kPa, x2 = 0.1907	720.73	711.79
3010 kPa, x2 = 0.4326	–	720.43
3010 kPa, x2 = 0.6863	746.75	737.03
3020 kPa, x2 = 0.3001	725.02	715.74
3020 kPa, x2 = 0.8711	767.09	–
4000 kPa, x2 = 0.3001	–	716.68
4010 kPa, x2 = 0.1391	719.94	–
4010 kPa, x2 = 0.1907	721.6	–
4010 kPa, x2 = 0.3001	725.89	–
4010 kPa, x2 = 0.4326	–	721.39
4010 kPa, x2 = 0.6863	747.62	737.97
4010 kPa, x2 = 0.8711	767.96	–
4020 kPa, x2 = 0.1391	–	711.27
4020 kPa, x2 = 0.1907	–	712.75
4020 kPa, x2 = 0.4326	730.9	–
4020 kPa, x2 = 0.8711	–	758.56
5000 kPa, x2 = 0.1391	–	712.19
5000 kPa, x2 = 0.3001	726.76	717.61
5000 kPa, x2 = 0.4326	–	722.33
5000 kPa, x2 = 0.8711	–	759.48
5010 kPa, x2 = 0.1391	720.8	–
5010 kPa, x2 = 0.1907	722.46	–
5020 kPa, x2 = 0.1907	–	713.66
5020 kPa, x2 = 0.4326	731.76	–
5020 kPa, x2 = 0.6863	748.51	738.91
5020 kPa, x2 = 0.8711	768.83	–
6000 kPa, x2 = 0.1391	721.67	713.11
6000 kPa, x2 = 0.4326	732.64	–
6000 kPa, x2 = 0.6863	749.38	–
6010 kPa, x2 = 0.1907	723.31	714.57
6010 kPa, x2 = 0.3001	–	718.54
6010 kPa, x2 = 0.4326	–	723.28
6010 kPa, x2 = 0.6863	–	739.85
6010 kPa, x2 = 0.8711	769.69	760.42
6020 kPa, x2 = 0.3001	727.63	–
7000 kPa, x2 = 0.1907	724.18	–
7000 kPa, x2 = 0.4326	–	724.2
7010 kPa, x2 = 0.1391	722.52	–
7010 kPa, x2 = 0.1907	–	715.47
7010 kPa, x2 = 0.3001	–	719.46
7010 kPa, x2 = 0.6863	750.25	–
7010 kPa, x2 = 0.8711	–	761.33
7020 kPa, x2 = 0.1391	–	714.02
7020 kPa, x2 = 0.3001	728.48	–
7020 kPa, x2 = 0.4326	733.49	–
7020 kPa, x2 = 0.6863	–	740.78
7020 kPa, x2 = 0.8711	770.55	–
8000 kPa, x2 = 0.1907	–	716.39
8000 kPa, x2 = 0.3001	729.32	–
8000 kPa, x2 = 0.6863	751.12	–
8010 kPa, x2 = 0.1391	723.35	714.92
8010 kPa, x2 = 0.1907	725.03	–
8010 kPa, x2 = 0.4326	734.37	725.12
8010 kPa, x2 = 0.8711	771.39	762.24
8020 kPa, x2 = 0.3001	–	720.36
8020 kPa, x2 = 0.6863	–	741.71
9000 kPa, x2 = 0.1391	–	715.8
9000 kPa, x2 = 0.1907	–	717.29
9000 kPa, x2 = 0.4326	–	726.05
9000 kPa, x2 = 0.6863	–	742.63
9000 kPa, x2 = 0.8711	–	763.15
9010 kPa, x2 = 0.1391	724.19	–
9010 kPa, x2 = 0.1907	725.85	–
9010 kPa, x2 = 0.3001	730.17	721.28
9010 kPa, x2 = 0.6863	751.97	–
9020 kPa, x2 = 0.4326	735.2	–
9020 kPa, x2 = 0.8711	772.23	–
10000 kPa, x2 = 0.1391	–	716.7
10000 kPa, x2 = 0.1907	–	718.16
10000 kPa, x2 = 0.3001	–	722.18
10000 kPa, x2 = 0.6863	752.81	–
10010 kPa, x2 = 0.1391	724.99	–
10010 kPa, x2 = 0.1907	726.66	–
10010 kPa, x2 = 0.3001	731	–
10010 kPa, x2 = 0.4326	736.06	–
10020 kPa, x2 = 0.8711	773.07	–
11000 kPa, x2 = 0.1907	727.49	–
11000 kPa, x2 = 0.3001	731.82	–
11000 kPa, x2 = 0.6863	753.64	–
11010 kPa, x2 = 0.1391	725.82	–
11010 kPa, x2 = 0.8711	773.9	–
11020 kPa, x2 = 0.4326	736.89	–
12000 kPa, x2 = 0.8711	774.72	–
12010 kPa, x2 = 0.1907	728.3	–
12010 kPa, x2 = 0.3001	732.64	–
12010 kPa, x2 = 0.4326	737.71	–
12010 kPa, x2 = 0.6863	754.47	–
12020 kPa, x2 = 0.1391	726.61	–
13000 kPa, x2 = 0.1391	727.41	–
13000 kPa, x2 = 0.1907	729.09	–
13000 kPa, x2 = 0.8711	775.51	–
13010 kPa, x2 = 0.3001	733.44	–
13010 kPa, x2 = 0.4326	738.53	–
13010 kPa, x2 = 0.6863	755.3	–
14000 kPa, x2 = 0.3001	734.23	–
14010 kPa, x2 = 0.1391	728.19	–
14010 kPa, x2 = 0.4326	739.32	–
14010 kPa, x2 = 0.6863	756.1	–
14020 kPa, x2 = 0.1907	729.89	–
14020 kPa, x2 = 0.8711	776.33	–
15000 kPa, x2 = 0.6863	756.89	–
15010 kPa, x2 = 0.1391	728.97	–
15010 kPa, x2 = 0.1907	730.66	–
15010 kPa, x2 = 0.3001	735.01	–
15010 kPa, x2 = 0.4326	740.1	–
15020 kPa, x2 = 0.8711	777.12	–
16000 kPa, x2 = 0.4326	740.87	–
16010 kPa, x2 = 0.1391	729.71	–
16010 kPa, x2 = 0.6863	757.68	–
16010 kPa, x2 = 0.8711	777.89	–
16020 kPa, x2 = 0.1907	731.41	–
16020 kPa, x2 = 0.3001	735.77	–
17000 kPa, x2 = 0.6863	758.44	–
17010 kPa, x2 = 0.1391	730.47	–
17020 kPa, x2 = 0.1907	732.18	–
17020 kPa, x2 = 0.3001	736.53	–
17020 kPa, x2 = 0.4326	741.63	–
17020 kPa, x2 = 0.8711	778.66	–
18000 kPa, x2 = 0.1391	731.21	–
18010 kPa, x2 = 0.3001	737.27	–
18010 kPa, x2 = 0.4326	742.38	–
18010 kPa, x2 = 0.6863	759.2	–
18010 kPa, x2 = 0.8711	779.44	–
18020 kPa, x2 = 0.1907	732.92	–
19000 kPa, x2 = 0.1391	731.93	–
19000 kPa, x2 = 0.1907	733.63	–
19000 kPa, x2 = 0.3001	738.01	–
19000 kPa, x2 = 0.6863	759.95	–
19020 kPa, x2 = 0.4326	743.13	–
19020 kPa, x2 = 0.8711	780.17	–
20000 kPa, x2 = 0.3001	738.71	–
20000 kPa, x2 = 0.4326	743.85	–
20010 kPa, x2 = 0.6863	760.69	–
20020 kPa, x2 = 0.1391	732.61	–
20020 kPa, x2 = 0.1907	734.34	–
20020 kPa, x2 = 0.8711	780.91	–
